The text below walks through data of patent publication US6440972B1, “Heterocyclic compounds useful as oxido-squalene cyclase inhibitors” (Zeneca Limited, priority 1997, dated 2002).

Data set [1] addresses T1, microsomal oxido-squalene cyclase (Rattus norvegicus, UniProt P48450).
T1 construct: Microsomes are prepared from rat liver according to methods known in the art; from tissue; host or cells: rat liver microsomes
T1 sequence (P48450 1-733): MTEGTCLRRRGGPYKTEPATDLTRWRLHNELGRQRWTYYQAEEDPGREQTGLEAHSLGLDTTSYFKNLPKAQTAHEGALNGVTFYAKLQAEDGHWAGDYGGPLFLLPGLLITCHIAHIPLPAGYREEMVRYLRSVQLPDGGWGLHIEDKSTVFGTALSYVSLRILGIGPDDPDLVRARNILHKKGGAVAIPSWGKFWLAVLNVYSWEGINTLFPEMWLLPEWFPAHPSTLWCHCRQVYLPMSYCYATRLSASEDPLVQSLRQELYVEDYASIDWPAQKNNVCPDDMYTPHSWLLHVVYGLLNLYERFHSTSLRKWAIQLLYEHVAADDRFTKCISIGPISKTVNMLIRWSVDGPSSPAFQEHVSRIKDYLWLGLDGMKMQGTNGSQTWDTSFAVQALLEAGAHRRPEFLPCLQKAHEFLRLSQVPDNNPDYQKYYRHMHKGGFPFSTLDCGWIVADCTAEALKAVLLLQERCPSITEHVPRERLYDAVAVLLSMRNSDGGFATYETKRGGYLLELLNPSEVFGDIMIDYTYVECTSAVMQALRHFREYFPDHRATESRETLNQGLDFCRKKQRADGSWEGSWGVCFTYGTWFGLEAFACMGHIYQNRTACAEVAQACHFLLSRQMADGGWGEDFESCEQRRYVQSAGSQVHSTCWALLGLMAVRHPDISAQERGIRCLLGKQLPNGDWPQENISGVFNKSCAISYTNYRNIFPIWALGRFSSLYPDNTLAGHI
Nature of the data set: In vitro test to measure inhibition of oxido-squalene cyclase (rat liver microsomes). The format is biochemical. Conditions: concentration of 0.01 μM. The procedure:
(a) In vitro Test to Measure Inhibition of Oxido-squalene Cyclase
This test measures the inhibition of microsomal oxido-squalene cyclase in vitro by compounds at set concentrations in the incubation medium.
Microsomes are prepared from rat liver according to methods known in the art, for example, the method described in published European Patent Application No 324,421 and stored in liquid nitrogen prior to assay. Assay vials are kept at 37° C. throughout the incubation. The microsomes typically contain 15-20 mg of protein per ml of microsomes. For the assay, 1 ml of microsomes are diluted by the addition of 722 μl of 50 mM phosphate buffer pH 7.4.
Phosphate buffered Tween® 80 (polyoxyethylene sorbitan […]) is prepared by adding 0.1 g Tween® 80 to 100 ml of 50 mM phosphate buffer.
A stock solution of oxido-squalene is made up as a solution in ethanol (0.65 mg.ml.^−1). 18 μl of radio-labelled oxido-squalene (1 μCi.ml^−1) is evaporated to dryness under a stream of nitrogen and redissolved in 1 ml of ethanol and 1 ml of the stock solution of oxido-squalene is added.
The test compound is dissolved in dimethyl sulphoxide to give a 10^−1M stock solution. […]
The samples are then placed in a water bath at 80° C. for 2 hours to saponify. […] Reaction rate is measured as the conversion of oxido-squalene to lanosterol, and the effects of test compounds are expressed as an inhibition of this process.

The next data set relates to cholesterol biosynthesis. Nature of the data set: In vivo test to measure inhibition of oxido-squalene cyclase / cholesterol biosynthesis in the rat. Conditions: dosed at 2 mg.kg^−1, oral, rat liver. The procedure:
(b) In vivo Test to Measure Inhibition of Oxido-squalene Cyclase
The ability of a compound to inhibit oxido-squalene cyclase and/or inhibit cholesterol biosynthesis may be assessed by a routine laboratory procedure carried out in the rat. The test involves administration of the compound to rats on a reversed lighting regimen. Female rats (35-55 g) are housed in reverse lighting conditions (red light from 0200 h-[…]) for a period of about 2 weeks prior to test. Animals are allowed free access to chow and drinking water throughout this period. At test, animals should weigh 100-140 g. The rats are dosed orally with the compound (typically 10-50 mg/kg) formulated in a polyethylene glycol/hydroxypropylmethyl cellulose mix. After 1 hour the rats are given triturated sodium mevalonate (15 μCi.kg^−1) intraperitoneally. Two hours after administration of the compound the rats are terminated and a piece of liver removed and weighed. The tissue is saponified at 80° C. for 2 hours in an ethanolic/potassium hydroxide solution (80% w/v aqueous KOH diluted 1:10 with ethanol). Water (2 ml) is added and the mixture extracted with iso-hexane (2×5 ml). The organic extracts are combined, evaporated to dryness under a stream of nitrogen and the residue is dissolved in a mixture of acetonitrile/iso-propanol (300 μl). […] The radio-label content of each fraction is assessed using a radio chemical flow detector. […]

For `O=C(C1CCN(c2ccncc2F)CC1)N1CCN(S(=O)(=O)c2ccc(Br)cc2)CC1`, the melting point was 192 °C.

Turning to `O=C(C1CCN(c2ccncc2Cl)CC1)N1CCN(S(=O)(=O)c2ccc(Br)cc2)CC1` [Example 1], in data set [1], the “inhibition of rat microsomal oxido-squalene cyclase” value is listed as “about 79%”. In the data set with cholesterol biosynthesis, the “inhibition of rat cholesterol biosynthesis” value is “about 79%”.
